Laboratory results published in PMC2834170 (Bioorganic & medicinal chemistry letters, 2010).

Columns and labels:
μ opioid receptor = μ opioid receptor (Homo sapiens, UniProt P35372); assay: Inhibition of μ opioid binding to CHO membranes
κ opioid receptor = κ opioid receptor (Homo sapiens, UniProt P41145); assay: Inhibition of κ opioid binding to CHO membranes
[1] = system: μ, δ and κ opioid receptors; assay: Selectivity across μ, δ and κ opioid binding to CHO membranes; settings: for Selectivity μ/δ/κ: ratio of Ki values, CHO membranes
[2] = relative to ether based compound 3

Sequence of μ opioid receptor (P35372 whole entry, species assumed): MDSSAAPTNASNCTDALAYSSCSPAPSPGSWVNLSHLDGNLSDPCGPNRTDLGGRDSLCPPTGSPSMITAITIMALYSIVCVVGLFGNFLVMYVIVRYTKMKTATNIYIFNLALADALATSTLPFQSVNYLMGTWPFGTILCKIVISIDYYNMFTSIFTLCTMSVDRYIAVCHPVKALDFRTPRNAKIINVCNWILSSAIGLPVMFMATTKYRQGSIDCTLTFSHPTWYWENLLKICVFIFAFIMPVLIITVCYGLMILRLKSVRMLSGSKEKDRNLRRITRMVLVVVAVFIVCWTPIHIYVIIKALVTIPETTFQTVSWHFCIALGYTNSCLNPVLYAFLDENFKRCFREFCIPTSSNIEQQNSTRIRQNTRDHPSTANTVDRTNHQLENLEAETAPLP
Sequence of κ opioid receptor (P41145 whole entry): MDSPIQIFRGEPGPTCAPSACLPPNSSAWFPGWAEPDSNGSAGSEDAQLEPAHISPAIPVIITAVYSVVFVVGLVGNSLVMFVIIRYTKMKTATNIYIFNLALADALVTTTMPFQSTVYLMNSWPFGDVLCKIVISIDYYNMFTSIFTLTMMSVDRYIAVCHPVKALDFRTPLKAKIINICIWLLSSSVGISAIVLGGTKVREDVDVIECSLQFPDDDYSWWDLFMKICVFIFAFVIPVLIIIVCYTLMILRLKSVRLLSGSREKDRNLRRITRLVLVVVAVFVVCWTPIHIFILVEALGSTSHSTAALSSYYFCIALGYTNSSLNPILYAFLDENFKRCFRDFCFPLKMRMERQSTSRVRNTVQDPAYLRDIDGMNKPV

OC(CCCCCCC(O)COc1ccc2c(c1)[C@@]13CCCC[C@H]1[C@@H](C2)N(CC1CCC1)CC3)COc1ccc2c(c1)[C@@]13CCCC[C@H]1[C@@H](C2)N(CC1CCC1)CC3 (stereo partly drawn) [Compound 12, Bis-((−)-N-cyclobutylmethylmorphinan-3-oxy) decane-2,9-diol]
increase in binding affinity at the μ opioid receptor (μ opioid receptor; [2]): 27 fold
increase in binding affinity at the κ opioid receptor (κ opioid receptor; [2]): 86 fold

OC(COc1ccc2c(c1)[C@@]13CCCC[C@H]1[C@@H](C2)N(CC1CCC1)CC3)CC(O)COc1ccc2c(c1)[C@@]13CCCC[C@H]1[C@@H](C2)N(CC1CCC1)CC3 (some centres unmarked) [Compound 7]
Selectivity μ/δ/κ [1]: 7/194/1

OC(CCCCC(O)COc1ccc2c(c1)[C@@]13CCCC[C@H]1[C@@H](C2)N(CC1CCC1)CC3)COc1ccc2c(c1)[C@@]13CCCC[C@H]1[C@@H](C2)N(CC1CCC1)CC3 (some centres unmarked) [Compound 10]
Selectivity μ/δ/κ [1]: 1/23/1

OC(COc1ccc2c(c1)[C@@]13CCCC[C@H]1[C@@H](C2)N(CC1CCC1)CC3)COc1ccc2c(c1)[C@@]13CCCC[C@H]1[C@@H](C2)N(CC1CCC1)CC3 [Compound 6]
greater binding affinity at the μ receptor (μ opioid receptor; relative to des-hydroxy analog 5): 7.5 fold
Selectivity μ/δ/κ [1]: 1/39/1

c1cc2c(cc1OCC1CO1)[C@@]13CCCC[C@H]1[C@@H](C2)N(CC1CCC1)CC3 (some centres unmarked) [Compound 14]
Selectivity μ/δ/κ [1]: 1/27/5

CCCCCCCCCCOc1ccc2c(c1)[C@@]13CCCC[C@H]1[C@@H](C2)N(CC1CCC1)CC3 [Compound 17]
weaker binding affinity at the μ opioid receptor (μ opioid receptor; relative to 15): 10 fold

CCCCCCCCC(O)COc1ccc2c(c1)[C@@]13CCCC[C@H]1[C@@H](C2)N(CC1CCC1)CC3 (some centres unmarked) [Compound 15]
weaker binding affinity at the μ and κ receptors ([1]; relative to bivalent ligand 12): 3–6 fold

CCCCCCCCCC(=O)Oc1ccc2c(c1)[C@@]13CCCC[C@H]1[C@@H](C2)N(CC1CCC1)CC3 [Compound 16]
Ki (nM) ± SE μ (μ opioid receptor; CHO membranes): sub-nanomolar
Ki (nM) ± SE κ (κ opioid receptor; CHO membranes): sub-nanomolar
Selectivity μ/δ/κ [1]: 1/100/1

OC(COc1ccccc1)COc1ccc2c(c1)[C@@]13CCCC[C@H]1[C@@H](C2)N(CC1CCC1)CC3 (some centres unmarked) [Compound 18]
weaker binding affinity at the μ opioid receptor (μ opioid receptor; relative to bivalent hydroxy ether 6): 7.5 fold
Selectivity μ/δ/κ [1]: 1/13/3
